Here are results for five molecules from patent US11178868B2, “Alkynyl-substituted 3-phenylpyrrolidine-2,4-diones and use thereof as herbicides” (Bayer CropScience Aktiengesellschaft, priority 2015, dated 2021).

What all share (assay type): in vivo
The subject of test [1] is Alopecurus myosuroides. Nature of the test: Pre-emergence herbicidal effect. The note with it: scored visually after 3 weeks. From the text: (§1) Seeds of monocotyledonous and dicotyledonous weed plants and crop plants are laid out in wood-fibre pots in sandy loam and covered with soil. The compounds according to the invention formulated in the form of wettable powders (WP) or as emulsion concentrates (EC) are then applied as aqueous suspension or emulsion at a water application rate of 600 to 800 I/ha (converted) with the addition of 0.2% wetting agent to the surface of the covering soil. After the treatment, the pots are placed in a greenhouse and kept under good growth conditions for the trial plants. The damage to the test plants is scored visually after a test period of 3 weeks by comparison with untreated controls (herbicidal activity in percent (%): 100% activity=the plants have died, 0% activity=like control plants).

The subject of test [2] is Avena fatua. Nature of the test: Pre-emergence herbicidal effect. As to conditions: scored visually after 3 weeks.
Excerpt: as §1

For test [3], the system named is Echinochloa crus-galli. The test is described as follows: Pre-emergence herbicidal effect. As to conditions: scored visually after 3 weeks.
Excerpt: as §1

For test [4], the system named is Setaria viridis. The test is described as follows: Pre-emergence herbicidal effect. The note with it: scored visually after 3 weeks.
Excerpt: as §1

In test [5] the test system is Alopecurus myosuroides. Nature of the test: Post-emergence herbicidal effect. As to conditions: assessed visually after about 3 weeks. On the procedure: (§2) Seeds of monocotyledonous and dicotyledonous weed and crop plants are laid out in sandy loam in wood-fibre pots, covered with soil and cultivated in a greenhouse under good growth conditions. 2 to 3 weeks after sowing, the test plants are treated at the one-leaf stage. The compounds according to the invention, formulated in the form of wettable powders (WP) or as emulsion concentrates (EC), are then sprayed as aqueous suspension or emulsion at a water application rate of 600 to 800 I/ha (converted) with the addition of 0.2% of wetting agent onto the green parts of the plants. After the test plants have been left to stand in the greenhouse under optimal growth conditions for about 3 weeks, the action of the preparations is assessed visually in comparison to untreated controls (herbicidal action in percent (%): 100% activity=the plants have died, 0% activity=like control plants).

Test [6] relates to Avena fatua. Nature of the test: Post-emergence herbicidal effect. As to conditions: assessed visually after about 3 weeks. How it is done: as §2
Test [7] relates to Echinochloa crus-galli. Nature of the test: Post-emergence herbicidal effect. As to conditions: assessed visually after about 3 weeks. On the procedure:
as §2

Test [8] deals with Lolium multiflorum. The test is described as follows: Pre-emergence herbicidal effect. The note with it: scored visually after 3 weeks.
Excerpt: as §1

Test [9] relates to Lolium multiflorum. Nature of the test: Post-emergence herbicidal effect. The note with it: assessed visually after about 3 weeks. On the procedure: as §2
The subject of test [10] is Setaria viridis. Nature of the test: Post-emergence herbicidal effect. The note with it: assessed visually after about 3 weeks. On the procedure: as §2

For `C#Cc1cc(CC)c(C2=C(O)C3(CCCC(OCCOC)C3)NC2=O)c(CC)c1` (stereo not drawn) [Example D10], the “Herbicidal effect against [%] ALOMY” value is reported as 90% in the test with Alopecurus myosuroides [1] (80 g a.i./ha), 100% in the test with Alopecurus myosuroides [1] (320 g a.i./ha), 90% in the test with Alopecurus myosuroides [5] (20 g a.i./ha) and 90% in the test on Alopecurus myosuroides [5] (80 g a.i./ha). The “Herbicidal effect against [%] AVEFA” value stood at 90% with Avena fatua [2] (80 g a.i./ha), 100% with Avena fatua [2] (320 g a.i./ha), 80% with Avena fatua [6] (20 g a.i./ha) and 90% with Avena fatua [6] (80 g a.i./ha). For the same molecule, the “Herbicidal effect against [%] ECHCG” value was 100% with Echinochloa crus-galli [3] (80 g a.i./ha), 100% in the test with Echinochloa crus-galli [3] (320 g a.i./ha), 90% in the test with Echinochloa crus-galli [7] (20 g a.i./ha) and 90% in the test on Echinochloa crus-galli [7] (80 g a.i./ha). Moreover, the “Herbicidal effect against [%] SETVI” value with Setaria viridis [4] (80 g a.i./ha) and with Setaria viridis [4] (320 g a.i./ha) was 100% in each case.

For `CC#Cc1cc(CC)c(C2=C(OC(=O)C(C)C)C3(CCCC(OCC)C3)NC2=O)c(CC)c1` (stereo not drawn) [Example P3], the “Herbicidal effect against [%] ALOMY” value in the test on Alopecurus myosuroides [1] (80 g a.i./ha) is 90%; in the test on Alopecurus myosuroides [1] (320 g a.i./ha) it was 100%. Further, the “Herbicidal effect against [%] AVEFA” value in the test with Avena fatua [2] (320 g a.i./ha) was determined as 80%. The “Herbicidal effect against [%] ECHCG” value in the test with Echinochloa crus-galli [3] (80 g a.i./ha) came out at 100%; in the test on Echinochloa crus-galli [3] (320 g a.i./ha), 100%; with Echinochloa crus-galli [7] (80 g a.i./ha) it was 90%. In addition, the “Herbicidal effect against [%] LOLMU” value with Lolium multiflorum [8] (80 g a.i./ha) and in the test on Lolium multiflorum [8] (320 g a.i./ha) was 100% each time. The “Herbicidal effect against [%] SETVI” value in the test on Setaria viridis [4] (80 g a.i./ha) and in the test on Setaria viridis [4] (320 g a.i./ha) was 100% in each case.

On to `C#Cc1cc(C)c(C2=C(OC(=O)OCC)C3(CCCC(OCCCC)C3)NC2=O)c(C)c1` (stereo not drawn) [Example P5], for which the “Herbicidal effect against [%] ALOMY” value is 80% in the test on Alopecurus myosuroides [1] (80 g a.i./ha) and 100% with Alopecurus myosuroides [1] (320 g a.i./ha). In the test on Avena fatua [2] (320 g a.i./ha), the “Herbicidal effect against [%] AVEFA” value was 80%. For the same molecule, the “Herbicidal effect against [%] ECHCG” value in the test on Echinochloa crus-galli [3] (80 g a.i./ha) was 90%; with Echinochloa crus-galli [3] (320 g a.i./ha), 100%. Also, the “Herbicidal effect against [%] LOLMU” value in the test with Lolium multiflorum [8] (80 g a.i./ha) turned out to be 90%; with Lolium multiflorum [8] (320 g a.i./ha) it was 100%. For the same molecule, the results for the “Herbicidal effect against [%] SETVI” value in the test with Setaria viridis [4] (80 g a.i./ha) and with Setaria viridis [4] (320 g a.i./ha) were 90% and 100%, respectively.

As to `C#Cc1cc(C)c(C2=C(OC(=O)C(C)C)C3(CCCC(OCCCC)C3)NC2=O)c(C)c1` (stereo not drawn) [Example P6], in the test with Alopecurus myosuroides [1] (320 g a.i./ha), the “Herbicidal effect against [%] ALOMY” value turned out to be 80%. The “Herbicidal effect against [%] ECHCG” value in the test on Echinochloa crus-galli [3] (320 g a.i./ha) is on record as 90%. For the same molecule, in the test with Lolium multiflorum [8] (320 g a.i./ha), the “Herbicidal effect against [%] LOLMU” value came out at 100%. Also, in the test with Setaria viridis [4] (320 g a.i./ha), the “Herbicidal effect against [%] SETVI” value is 100%.

Regarding `CC#Cc1cc(CC)c(C2=C(OC(=O)C(C)C)C3(CCCC(OCCOC)C3)NC2=O)c(CC)c1` (stereo not drawn) [Example P12], the “Herbicidal effect against [%] ALOMY” value with Alopecurus myosuroides [1] (80 g a.i./ha), with Alopecurus myosuroides [1] (320 g a.i./ha), with Alopecurus myosuroides [5] (20 g a.i./ha) and with Alopecurus myosuroides [5] (80 g a.i./ha) was 100% throughout. Further, the “Herbicidal effect against [%] AVEFA” value in the test with Avena fatua [2] (80 g a.i./ha), in the test with Avena fatua [2] (320 g a.i./ha), in the test with Avena fatua [6] (20 g a.i./ha) and with Avena fatua [6] (80 g a.i./ha) was 100% each time. For the same molecule, the “Herbicidal effect against [%] ECHCG” value in the test on Echinochloa crus-galli [3] (80 g a.i./ha), with Echinochloa crus-galli [3] (320 g a.i./ha), in the test with Echinochloa crus-galli [7] (20 g a.i./ha) and in the test with Echinochloa crus-galli [7] (80 g a.i./ha) was 100% throughout. Also, the “Herbicidal effect against [%] LOLMU” value in the test with Lolium multiflorum [8] (80 g a.i./ha), in the test on Lolium multiflorum [8] (320 g a.i./ha), in the test with Lolium multiflorum [9] (20 g a.i./ha) and with Lolium multiflorum [9] (80 g a.i./ha) was 100% throughout. The “Herbicidal effect against [%] SETVI” value with Setaria viridis [4] (80 g a.i./ha), in the test on Setaria viridis [4] (320 g a.i./ha), with Setaria viridis [10] (20 g a.i./ha) and in the test with Setaria viridis [10] (80 g a.i./ha) was 100% each time.
